Test results as given in ChEMBL document CHEMBL5678812, “Inhibitors of p21-activated kinases (PAKs)” (J Med Chem, 2015).

Assays:
[1] = target: Serine/threonine-protein kinase pim-2 (Homo sapiens) (UniProt Q9P1W9); experiment: Inhibition of PIM2 (unknown origin) at 0.1 uM relative to control
[2] = target: Maternal embryonic leucine zipper kinase (Homo sapiens) (UniProt Q14680); experiment: Inhibition of MELK (unknown origin) at 0.1 uM relative to control
[3] = target: Dual specificity protein kinase CLK1 (Homo sapiens) (UniProt P49759); experiment: Inhibition of CLK1 (unknown origin) at 0.1 uM relative to control
[4] = target: cAMP-dependent protein kinase catalytic subunit PRKX (Homo sapiens) (UniProt P51817); experiment: Inhibition of PrKX (unknown origin) at 0.1 uM relative to control
[5] = target: Dual specificity mitogen-activated protein kinase kinase 2 (Homo sapiens) (UniProt P36507); experiment: Inhibition of MEK2 (unknown origin) at 0.1 uM relative to control
[6] = target: T1, Cyclin-dependent kinase 5/CDK5 activator 1 (Homo sapiens) (UniProt Q00535+Q15078); experiment: Inhibition of CDK5/p25 (unknown origin) at 0.1 uM relative to control; format: protein-complex assay
[7] = target: Serine/threonine-protein kinase DCLK2 (Homo sapiens) (UniProt Q8N568); experiment: Inhibition of DCAMKL2 (unknown origin) at 0.1 uM relative to control
[8] = target: Ribosomal protein S6 kinase alpha-5 (Homo sapiens) (UniProt O75582); experiment: Inhibition of MSK1 (unknown origin) at 0.1 uM relative to control
[9] = target: Dual specificity protein kinase CLK2 (Homo sapiens) (UniProt P49760); experiment: Inhibition of CLK2 (unknown origin) at 0.1 uM relative to control
[10] = target: Non-receptor tyrosine-protein kinase TYK2 (Homo sapiens) (UniProt P29597); experiment: Inhibition of TYK2 (unknown origin) at 0.1 uM relative to control
[11] = target: Tyrosine-protein kinase Lyn (Homo sapiens) (UniProt P07948); experiment: Inhibition of Lyn (unknown origin) at 0.1 uM relative to control
[12] = target: Serine/threonine-protein kinase BRSK1 (Homo sapiens) (UniProt Q8TDC3); experiment: Inhibition of BrSK1 (unknown origin) at 0.1 uM relative to control
[13] = target: Ephrin type-B receptor 3 (Homo sapiens) (UniProt P54753); experiment: Inhibition of EphB3 (unknown origin) at 0.1 uM relative to control
[14] = target: Casein kinase I isoform gamma-1 (Homo sapiens) (UniProt Q9HCP0); experiment: Inhibition of CK1gamma1 (unknown origin) at 0.1 uM relative to control
[15] = target: Serine/threonine-protein kinase Nek6 (Homo sapiens) (UniProt Q9HC98); experiment: Inhibition of NEK6 (unknown origin) at 0.1 uM relative to control
[16] = target: Protein kinase C delta type (Homo sapiens) (UniProt Q05655); experiment: Inhibition of PKCdelta (unknown origin) at 0.1 uM relative to control
[17] = target: Serine/threonine-protein kinase PLK2 (Homo sapiens) (UniProt Q9NYY3); experiment: Inhibition of PLK2 (unknown origin) at 0.1 uM relative to control
[18] = target: Aurora kinase B (Homo sapiens) (UniProt Q96GD4); experiment: Inhibition of Aurora B (unknown origin) at 0.1 uM relative to control
[19] = target: Dual specificity protein kinase CLK3 (Homo sapiens) (UniProt P49761); experiment: Inhibition of CLK3 (unknown origin) at 0.1 uM relative to control
[20] = target: Ephrin type-A receptor 8 (Homo sapiens) (UniProt P29322); experiment: Inhibition of EphA8 (unknown origin) at 0.1 uM relative to control
[21] = target: Mitogen-activated protein kinase kinase kinase kinase 4 (Homo sapiens) (UniProt O95819); experiment: Inhibition of NIK (unknown origin) at 0.1 uM relative to control
[22] = target: Tyrosine-protein kinase ITK/TSK (Homo sapiens) (UniProt Q08881); experiment: Inhibition of Itk (unknown origin) at 0.1 uM relative to control
[23] = target: Fibroblast growth factor receptor 4 (Homo sapiens) (UniProt P22455); experiment: Inhibition of FGFR4 (unknown origin) at 0.1 uM relative to control
[24] = target: Proto-oncogene tyrosine-protein kinase ROS (Homo sapiens) (UniProt P08922); experiment: Inhibition of Ros (unknown origin) at 0.1 uM relative to control
[25] = target: Serine/threonine-protein kinase Nek4 (Homo sapiens) (UniProt P51957); experiment: Inhibition of NEK4 (unknown origin) at 0.1 uM relative to control
[26] = target: Protein kinase C theta type (Homo sapiens) (UniProt Q04759); experiment: Inhibition of PKCtheta (unknown origin) at 0.1 uM relative to control
[27] = target: G protein-coupled receptor kinase 6 (Homo sapiens) (UniProt P43250); experiment: Inhibition of GRK6 (unknown origin) at 0.1 uM relative to control
[28] = target: Serine/threonine-protein kinase Sgk1 (Homo sapiens) (UniProt O00141); experiment: Inhibition of SGK1 (unknown origin) at 0.1 uM relative to control
[29] = target: Dual specificity tyrosine-phosphorylation-regulated kinase 1A (Homo sapiens) (UniProt Q13627); experiment: Inhibition of DYRK1A (unknown origin) at 0.1 uM relative to control
[30] = target: T1, Cyclin-dependent kinase 5/CDK5 activator 1 (Homo sapiens); experiment: Inhibition of CDK5/p35 (unknown origin) at 0.1 uM relative to control; format: protein-complex assay
[31] = target: Serine/threonine-protein kinase Nek2 (Homo sapiens) (UniProt P51955); experiment: Inhibition of NEK2 (unknown origin) at 0.1 uM relative to control
[32] = target: Receptor tyrosine-protein kinase erbB-2 (Homo sapiens) (UniProt P04626); experiment: Inhibition of ErbB2 (unknown origin) at 0.1 uM relative to control
[33] = target: Eukaryotic elongation factor 2 kinase (Homo sapiens) (UniProt O00418); experiment: Inhibition of eEF-2K (unknown origin) at 0.1 uM relative to control
[34] = target: Receptor-interacting serine/threonine-protein kinase 2 (Homo sapiens) (UniProt O43353); experiment: Inhibition of RIPK2 (unknown origin) at 0.1 uM relative to control
[35] = target: TGF-beta receptor type-1 (Homo sapiens) (UniProt P36897); experiment: Inhibition of TGFBR1 (unknown origin) at 0.1 uM relative to control
[36] = target: NUAK family SNF1-like kinase 1 (Homo sapiens) (UniProt O60285); experiment: Inhibition of ARK5 (unknown origin) at 0.1 uM relative to control
[37] = target: Angiopoietin-1 receptor (Homo sapiens) (UniProt Q02763); experiment: Inhibition of Tie2 (unknown origin) at 0.1 uM relative to control
[38] = target: Phosphatidylinositol 4,5-bisphosphate 3-kinase catalytic subunit gamma isoform (Homo sapiens) (UniProt P48736); experiment: Inhibition of PI3Kgamma (unknown origin) at 0.1 uM relative to control

T1 sequence (Q00535 whole entry): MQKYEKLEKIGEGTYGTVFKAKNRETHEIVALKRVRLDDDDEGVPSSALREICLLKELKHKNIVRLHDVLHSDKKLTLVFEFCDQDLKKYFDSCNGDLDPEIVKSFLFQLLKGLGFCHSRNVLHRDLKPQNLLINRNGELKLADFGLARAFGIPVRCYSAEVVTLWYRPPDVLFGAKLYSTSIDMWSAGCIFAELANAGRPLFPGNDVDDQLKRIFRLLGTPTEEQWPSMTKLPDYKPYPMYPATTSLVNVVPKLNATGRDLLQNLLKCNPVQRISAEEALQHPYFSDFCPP
T1 sequence (Q15078 99-307 partner limits assumed): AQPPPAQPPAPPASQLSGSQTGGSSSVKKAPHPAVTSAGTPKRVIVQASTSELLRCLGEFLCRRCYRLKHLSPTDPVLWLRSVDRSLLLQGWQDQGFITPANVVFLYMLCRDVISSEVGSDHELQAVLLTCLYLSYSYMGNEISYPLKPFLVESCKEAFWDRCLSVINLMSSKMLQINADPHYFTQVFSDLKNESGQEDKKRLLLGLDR
Serine/threonine-protein kinase pim-2 (Homo sapiens), sequence (Q9P1W9 whole entry, looked up): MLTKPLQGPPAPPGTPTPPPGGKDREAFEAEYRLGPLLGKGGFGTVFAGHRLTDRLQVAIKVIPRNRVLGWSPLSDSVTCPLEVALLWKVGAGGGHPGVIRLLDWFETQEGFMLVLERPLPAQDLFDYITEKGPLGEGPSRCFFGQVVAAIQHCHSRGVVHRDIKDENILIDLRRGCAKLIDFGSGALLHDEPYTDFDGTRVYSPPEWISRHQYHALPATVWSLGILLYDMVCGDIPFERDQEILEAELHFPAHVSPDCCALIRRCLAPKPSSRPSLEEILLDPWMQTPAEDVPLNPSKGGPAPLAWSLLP
NUAK family SNF1-like kinase 1 (Homo sapiens), sequence (O60285 whole entry): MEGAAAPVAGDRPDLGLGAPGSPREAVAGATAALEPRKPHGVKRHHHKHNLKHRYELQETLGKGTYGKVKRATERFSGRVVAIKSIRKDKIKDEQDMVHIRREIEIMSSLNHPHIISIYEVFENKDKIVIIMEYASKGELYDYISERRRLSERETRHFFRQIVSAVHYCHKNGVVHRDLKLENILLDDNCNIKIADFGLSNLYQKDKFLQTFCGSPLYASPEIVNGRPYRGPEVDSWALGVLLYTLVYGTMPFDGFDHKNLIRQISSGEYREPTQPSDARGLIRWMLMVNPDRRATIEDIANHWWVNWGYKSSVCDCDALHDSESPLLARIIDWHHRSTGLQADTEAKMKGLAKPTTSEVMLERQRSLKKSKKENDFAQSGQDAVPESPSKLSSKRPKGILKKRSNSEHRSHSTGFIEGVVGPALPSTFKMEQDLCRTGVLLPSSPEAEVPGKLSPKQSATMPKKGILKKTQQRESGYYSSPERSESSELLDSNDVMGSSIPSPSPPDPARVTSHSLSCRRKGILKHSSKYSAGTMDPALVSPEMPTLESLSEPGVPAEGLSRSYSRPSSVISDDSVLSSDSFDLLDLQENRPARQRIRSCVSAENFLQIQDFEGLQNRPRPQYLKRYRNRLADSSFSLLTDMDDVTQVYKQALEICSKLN
Eukaryotic elongation factor 2 kinase (Homo sapiens), sequence (O00418 whole entry): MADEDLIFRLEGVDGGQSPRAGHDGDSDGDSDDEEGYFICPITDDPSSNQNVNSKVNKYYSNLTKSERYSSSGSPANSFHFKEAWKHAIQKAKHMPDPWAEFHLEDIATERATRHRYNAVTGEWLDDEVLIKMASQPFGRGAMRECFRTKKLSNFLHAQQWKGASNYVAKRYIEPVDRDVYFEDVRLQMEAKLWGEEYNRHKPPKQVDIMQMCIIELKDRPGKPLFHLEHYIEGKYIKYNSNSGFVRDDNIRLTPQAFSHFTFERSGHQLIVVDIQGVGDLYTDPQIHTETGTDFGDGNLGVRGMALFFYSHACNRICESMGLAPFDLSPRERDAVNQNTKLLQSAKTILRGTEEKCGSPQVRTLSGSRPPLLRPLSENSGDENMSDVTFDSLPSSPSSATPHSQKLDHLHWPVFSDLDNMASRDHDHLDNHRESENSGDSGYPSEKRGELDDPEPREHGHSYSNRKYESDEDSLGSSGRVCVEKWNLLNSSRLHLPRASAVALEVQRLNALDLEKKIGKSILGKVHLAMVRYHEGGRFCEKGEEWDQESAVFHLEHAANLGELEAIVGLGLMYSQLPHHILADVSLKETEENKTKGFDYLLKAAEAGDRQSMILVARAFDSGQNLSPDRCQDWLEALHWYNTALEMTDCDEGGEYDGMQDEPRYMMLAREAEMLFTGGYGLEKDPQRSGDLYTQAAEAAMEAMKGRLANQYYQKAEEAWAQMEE
Serine/threonine-protein kinase Nek6 (Homo sapiens), sequence (Q9HC98 whole entry): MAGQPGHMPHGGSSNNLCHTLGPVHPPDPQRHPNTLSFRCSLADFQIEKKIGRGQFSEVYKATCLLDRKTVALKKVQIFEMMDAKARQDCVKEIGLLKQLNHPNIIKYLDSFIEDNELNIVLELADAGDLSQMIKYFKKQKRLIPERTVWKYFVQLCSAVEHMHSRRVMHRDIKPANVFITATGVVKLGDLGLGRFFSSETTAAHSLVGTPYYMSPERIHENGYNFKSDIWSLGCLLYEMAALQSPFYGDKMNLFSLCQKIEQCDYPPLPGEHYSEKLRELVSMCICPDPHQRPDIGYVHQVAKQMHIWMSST
Maternal embryonic leucine zipper kinase (Homo sapiens), sequence (Q14680 whole entry, looked up): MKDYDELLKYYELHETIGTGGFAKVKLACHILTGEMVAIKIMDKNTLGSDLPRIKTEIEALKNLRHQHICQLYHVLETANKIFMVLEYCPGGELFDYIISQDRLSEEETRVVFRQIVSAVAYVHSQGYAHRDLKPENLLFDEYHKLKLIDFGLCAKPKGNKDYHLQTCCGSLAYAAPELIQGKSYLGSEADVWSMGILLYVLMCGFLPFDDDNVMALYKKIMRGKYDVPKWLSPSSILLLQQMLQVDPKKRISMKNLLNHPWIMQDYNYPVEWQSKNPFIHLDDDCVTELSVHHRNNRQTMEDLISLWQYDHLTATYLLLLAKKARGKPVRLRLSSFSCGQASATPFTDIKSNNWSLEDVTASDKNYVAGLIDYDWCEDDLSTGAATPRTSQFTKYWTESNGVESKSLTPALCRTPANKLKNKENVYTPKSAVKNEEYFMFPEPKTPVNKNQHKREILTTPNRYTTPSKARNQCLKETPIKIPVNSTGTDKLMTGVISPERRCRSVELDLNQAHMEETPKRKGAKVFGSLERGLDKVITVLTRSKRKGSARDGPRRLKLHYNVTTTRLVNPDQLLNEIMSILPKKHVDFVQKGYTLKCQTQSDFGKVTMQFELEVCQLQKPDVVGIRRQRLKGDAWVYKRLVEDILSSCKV
Angiopoietin-1 receptor (Homo sapiens), sequence (Q02763 whole entry, canonical isoform): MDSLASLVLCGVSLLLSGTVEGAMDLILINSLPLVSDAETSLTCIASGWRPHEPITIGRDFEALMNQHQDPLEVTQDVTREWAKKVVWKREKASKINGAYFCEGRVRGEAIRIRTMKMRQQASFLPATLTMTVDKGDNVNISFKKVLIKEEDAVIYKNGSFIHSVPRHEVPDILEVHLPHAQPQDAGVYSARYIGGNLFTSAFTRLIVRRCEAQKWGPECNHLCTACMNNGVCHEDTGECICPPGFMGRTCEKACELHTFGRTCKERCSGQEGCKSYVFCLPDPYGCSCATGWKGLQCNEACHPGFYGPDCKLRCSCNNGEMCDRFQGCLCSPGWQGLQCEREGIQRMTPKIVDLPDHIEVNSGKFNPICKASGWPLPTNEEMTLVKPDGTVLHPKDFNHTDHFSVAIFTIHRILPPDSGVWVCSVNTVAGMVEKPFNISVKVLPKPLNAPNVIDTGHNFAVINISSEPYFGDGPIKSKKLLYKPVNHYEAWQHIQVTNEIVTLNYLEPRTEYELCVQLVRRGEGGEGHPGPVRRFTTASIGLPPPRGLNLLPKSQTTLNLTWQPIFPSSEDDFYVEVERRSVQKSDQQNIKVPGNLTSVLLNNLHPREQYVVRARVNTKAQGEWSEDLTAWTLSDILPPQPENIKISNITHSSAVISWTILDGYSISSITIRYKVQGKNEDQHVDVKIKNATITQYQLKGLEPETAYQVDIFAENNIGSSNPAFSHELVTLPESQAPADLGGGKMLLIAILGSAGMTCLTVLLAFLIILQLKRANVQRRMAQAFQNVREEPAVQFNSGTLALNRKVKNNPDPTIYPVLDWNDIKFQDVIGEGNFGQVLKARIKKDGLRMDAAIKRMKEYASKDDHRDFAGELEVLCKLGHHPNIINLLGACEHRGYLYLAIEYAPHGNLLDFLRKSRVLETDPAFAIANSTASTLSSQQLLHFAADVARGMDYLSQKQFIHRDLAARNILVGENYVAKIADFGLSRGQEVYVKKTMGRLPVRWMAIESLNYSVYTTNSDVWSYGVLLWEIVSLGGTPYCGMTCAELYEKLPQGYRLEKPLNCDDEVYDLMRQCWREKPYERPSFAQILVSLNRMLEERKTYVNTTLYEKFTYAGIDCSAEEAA
G protein-coupled receptor kinase 6 (Homo sapiens), sequence (P43250 whole entry, looked up): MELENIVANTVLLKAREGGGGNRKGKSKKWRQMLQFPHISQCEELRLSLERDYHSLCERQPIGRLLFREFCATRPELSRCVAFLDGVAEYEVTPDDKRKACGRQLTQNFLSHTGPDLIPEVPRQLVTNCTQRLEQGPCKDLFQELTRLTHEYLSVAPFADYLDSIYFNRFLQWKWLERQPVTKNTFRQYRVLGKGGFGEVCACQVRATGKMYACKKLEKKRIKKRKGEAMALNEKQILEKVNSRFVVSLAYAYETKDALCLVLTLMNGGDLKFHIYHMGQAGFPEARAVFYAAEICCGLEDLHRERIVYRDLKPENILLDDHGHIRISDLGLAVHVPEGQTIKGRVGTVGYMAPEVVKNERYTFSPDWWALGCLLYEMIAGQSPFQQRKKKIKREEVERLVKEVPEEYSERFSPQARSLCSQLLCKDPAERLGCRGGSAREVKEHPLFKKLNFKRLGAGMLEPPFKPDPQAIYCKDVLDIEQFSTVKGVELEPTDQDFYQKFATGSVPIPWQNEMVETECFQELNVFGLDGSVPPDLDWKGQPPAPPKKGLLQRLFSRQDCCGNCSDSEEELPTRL

An inhibition [1] of 8.4%, an inhibition [2] of 4.1% and an inhibition [3] of 11.3% were found for `COCCNc1nc2ccc(C#CC3(O)CCCCC3)cc2n1-c1ccnc(N)n1` in this work. It also gave an inhibition [4] of 5.3%, an inhibition [5] of -0.6% and an inhibition [6] of 4.3%. It also gave an inhibition [7] of 10.9%, an inhibition [8] of 4.2% and an inhibition [9] of 0%. The inhibition [10] was 3.3%, the inhibition [11] was -2.7% and the inhibition [12] was 4.6%. For the same compound, the inhibition [13] was 5.5%, the inhibition [14] was 1.9% and the inhibition [15] was 9.9%. It also gave an inhibition [16] of 0.5%, an inhibition [17] of 10.8% and an inhibition [18] of 4.7%. For the same compound, the inhibition [19] was 8.9%, the inhibition [20] was 9.8% and the inhibition [21] was -0.5%. For the same compound, the inhibition [22] was 4%, the inhibition [23] was -1% and the inhibition [24] was 6.8%. For the same compound, the inhibition [25] was 2%, the inhibition [26] was 12.3% and the inhibition [27] was 11.7%. It also gave an inhibition [28] of 4.4%, an inhibition [29] of -2% and an inhibition [30] of -1.6%. For the same compound, the inhibition [31] was 6.3%, the inhibition [32] was -5% and the inhibition [33] was 4.3%.

An inhibition [34] of 101%, an inhibition [35] of 99.3% and an inhibition [36] of 85.5% were found for `CN1CCc2cc(-c3cnc4[nH]cc(C(=O)c5ccccc5Cl)c4c3)ccc2C1` in this work. For the same compound, the inhibition [37] was 24.8% and the inhibition [38] was 4.1%.
